Data as given in patent US20260373123A1, “IMPROVED TREATMENT OF CANCERS USING COMBINATIONS OF SMARCA2 DEGRADERS AND KRAS TARGETING THERAPIES” (Prelude Therapeutics Incorporated, priority 2022, published 2026).
Entries after “also recorded” stand apart in the source; their conditions may differ.

Tests used:
NCI-H2030 = assay: Cell proliferation assay (CellTiter-Glo), drug combination synergy by Bliss and ZIP models, NCI-H2030; format: cell-based; conditions: combination of compound 1 with KRAS G12C inhibitor (MRTX849, AMG510, ARS-1620 or JDQ-443); for synergy (anti-proliferation effects): NCI-H2030, SMARCA4 low/KRAS G12C, day 7; for Bliss synergy score / ZIP synergy score: NCI-H2030, synergistic effect likely where scores larger than 10
Procedure: FIG. 2. […] Lung cancer NCI-H2030 cells (SMARAC4 low/KRAS G12C) were treated with KRAS G12C inhibitor (MRTX849, AMG510, ARS1629 or JDQ-443) and with a SMARCA2 degrader (compound 1) in a different dose-range. Cell viability was analyzed on day 7 using Cell-titer Glo.
FIG. 5. Bliss and ZIP synergy scores of H2030 cells treated with a SMARCA2 degrader (compound 1) and a KRAS targeting therapy (MRTX849, AMG510, ARS1629 or JDQ443). Synergistic effect is likely where synergy scores are larger than 10.
(§1) The degree of combination synergy, or antagonism, is quantified by comparing the observed drug combination response against the expected response, calculated using a reference model that assumes no interaction between drugs. Drug synergy was determined using the Bliss and Zero interaction potency (ZIP) reference models.
(§2) The Bliss independence model assumes a stochastic process in which two drugs elicit their effects independently, and the expected combination effect can be calculated based on the probability of independent events; The ZIP model captures the drug interaction relationships by comparing the change in the potency (effect at certain dose level) of the dose-response curves between individual drugs and their combinations. ZIP assumes that two non-interacting drugs are expected to incur minimal changes in their dose-response curves. Model calculations can be found at www.ncbi.nlm.nih.gov/pmc/articles/PMC4759128/.
(§3) Cell proliferation assay: Cells were plated in 384-well white-walled, clear-bottom plates in standard tissue culture conditions. 250 cells per well of the NCI-H2030 (ATCC, CRL-5914) cell line was seeded in RPMI-1640 medium, FBS serum to a final concentration of 10%, 100 cells per well of the UM-UC-3 (ATCC, CRL-1749) cell line was seeded in EMEM medium, FBS serum to a final concentration of 10%. The day after plating, serial dilutions of two compounds were plated in dose-response matrices in quadruplicate, including DMSO controls, using a Tecan D300e Digital Dispenser (Tecan Group Ltd. Männedorf, Switzerland). All wells were normalized to highest total volume of DMSO. 7 days later the CellTiter-Glo® 2.0 Cell Viability Assay (CTG) (#G9242, Promega, Madison, WI) was used to measure cell viability effects of drug combinations. The expected drug combination responses were calculated based on Bliss and ZIP reference model using SynergyFinder (Ianevski et al, 2020). Deviations between observed and expected responses with positive and negative values denote synergy and antagonism respectively. Synergistic effect is likely where synergy scores are larger than 10. MRTX849 (Adagrasib, Catalog No. S8884) and ARS-1620 (Catalog No. S8707) were purchased from Selleck Chemicals. AMG510 (Sotorasib, Catalog No. HY-114277) and JDQ-443 (Catalog No. HY-139612) were purchased from MedChemExpress.
NCI-H2030 is a non-small cell lung cancer cell line that express low SMARCA4 and KRAS G12C mutation. Combination therapy was applied to H2030 cells and % viable cells was calculated (see FIG. 2). Bliss and ZIP scores are larger than 10, which indicates compound 1 and KRAS G12C inhibitors will likely show synergistic effects (FIG. 5).

UM-UC-3 = assay: Cell proliferation assay (CellTiter-Glo), drug combination synergy by Bliss and ZIP models, UM-UC-3; format: cell-based, human; conditions: for synergy (anti-proliferation effects): combination of compound 1 with KRAS G12C inhibitor (MRTX849, AMG510, ARS1629 or JDQ443), UM-UC-3, SMARCA4 damaging mutation/KRAS G12C, day 7
Procedure: FIG. 3. […] Bladder cancer UM-UC-3 cells (SMARAC4 damaging mutation/KRAS G12C) were treated with KRAS G12C inhibitor (MRTX849, AMG510, ARS1629 or JDQ443) and with a SMARCA2 degrader (compound 1) in a different dose-range. Cell viability was analyzed on day 7 using Cell-titer Glo.
FIG. 6. Bliss and ZIP synergy scores of UM-UC-3 cells treated with a SMARCA2 degrader (compound 1) and a KRAS targeting therapy (MRTX849, AMG510, ARS1629 or JDQ443). Synergistic effect is likely where synergy scores are larger than 10.
as §1, §2, §3
UC-UM-3 is a human bladder transitional cell carcinoma cancer cell line that expresses SMARCA4 damaging mutation and KRAS G12C mutation. Combination therapy was applied to UM-UC-3 cells and % viable cells was calculated (FIG. 3). Bliss and ZIP scores are larger than 10, which indicates compound 1 and KRAS G12C inhibitors will likely show synergistic effects (FIG. 6).

NCI-H838 cells = assay: Cell viability (Cell-titer Glo), drug combination, control line NCI-H838; format: cell-based; conditions: combination of compound 1 with KRAS G12C inhibitor (MRTX849 or AMG510); NCI-H838, SMARCA4 damaging mutation/KRAS WT; day 7
Procedure: (§4) FIG. 4. […] Lung cancer NCI-H838 cells (SMARAC4 damaging mutation/KRAS WT) or NCI-H358 cells (SMARCA4 WT/KRAS G12C) were treated with KRAS G12C inhibitor (MRTX849 or AMG510) and with a SMARCA2 degrader (compound 1) in a different dose-range. Cell viability was analyzed on day 7 using Cell-titer Glo.
as §3, with “Synergistic effect is likely where synergy scores are larger than 10. MRTX849 (Adagrasib, Catalog No. S8884) and ARS-1620 (Catalog No. S8707) were purchased from Selleck Chemicals. AMG510 (Sotorasib, Catalog No. HY-114277) and JDQ-443 (Catalog No. HY-139612) were purchased from MedChemExpress.” left out

NCI-H358 cells = assay: Cell viability (Cell-titer Glo), drug combination, control line NCI-H358; format: cell-based; conditions: combination of compound 1 with KRAS G12C inhibitor (MRTX849 or AMG510); NCI-H358, SMARCA4 WT/KRAS G12C; day 7
Procedure: as §4
as §3, with “Synergistic effect is likely where synergy scores are larger than 10. MRTX849 (Adagrasib, Catalog No. S8884) and ARS-1620 (Catalog No. S8707) were purchased from Selleck Chemicals. AMG510 (Sotorasib, Catalog No. HY-114277) and JDQ-443 (Catalog No. HY-139612) were purchased from MedChemExpress.” left out

UM-UC-3 xenograft tumors = assay: Tumor volume in mice with UM-UC-3 xenograft tumors; format: in vivo; conditions: for tumor volume reduction (synergy): combination: compound 1 100 mg/kg s.c. Q3D and MRTX849 10 mg/kg p.o. QD, UM-UC-3
Procedure: FIG. 7. Plot of mean tumor volume vs. dosing time for UM-UC-3 cells treated with a SMARCA2 degrader (compound 1) and a KRAS targeting therapy (MRTX849).
(§5) The concentration of compound 1 was 100 mg/kg s.c. Q3D and the concentration of MRTX849 was 10 mg/kg p.o. QD. Statistical analysis used the two-tailed Mann-Whitney test versus vehicle, with *P<0.05, **P<0.01 and ***P<0.001.

H2030 xenograft tumors = assay: Tumor volume in mice with H2030 xenograft tumors; format: in vivo; conditions: for tumor volume reduction (synergy): combination: compound 1 100 mg/kg s.c. Q3D and MRTX849 10 mg/kg p.o. QD, H2030
Procedure: FIG. 8. Plot of mean tumor volume vs. dosing time for H2030 cells treated with a SMARCA2 degrader (compound 1) and a KRAS targeting therapy (MRTX849).
as §5

[1] = combination of compound 1 with KRAS G12C inhibitors, UM-UC-3, synergistic effect likely where scores larger than 10

Row | SMILES | synergy (anti-proliferation effects) (NCI-H2030) | Bliss synergy score (NCI-H2030) | ZIP synergy score (NCI-H2030) | synergy (anti-proliferation effects) (UM-UC-3) | synergy (anti-proliferation effects) (NCI-H2030; listed as ARS1629) | Bliss synergy score (UM-UC-3; [1]) | ZIP synergy score (UM-UC-3; [1]) | synergistic effects (cell viability) (NCI-H838 cells) | synergistic effects (cell viability) (NCI-H358 cells) | enlargement of tumor volumes (UM-UC-3 xenograft tumors; combination of compound 1 and a KRAS targeting therapy, mice with UM-UC-3 xenograft tumors) | tumor volume reduction (synergy) (UM-UC-3 xenograft tumors) | enlargement of tumor volumes (H2030 xenograft tumors; combination of compound 1 and a KRAS targeting therapy, mice with H2030 xenograft tumors) | tumor volume reduction (synergy) (H2030 xenograft tumors)
1 | C=CC(=O)N1CCN(c2nc(=O)n(-c3c(C)ccnc3C(C)C)c3nc(-c4c(O)cccc4F)c(F)cc23)[C@@H](C)C1 (atropisomer, axis not shown) [JDQ-443] | synergistic anti-proliferation effects; also recorded: Excellent synergy | > 10 | > 10 | synergistic anti-proliferation effects | – | – | – | – | – | – | – | – | –
2 | C=CC(=O)N1CCN(c2ncnc3c(F)c(-c4c(O)cccc4F)c(Cl)cc23)CC1 [ARS-1620] | Excellent synergy | > 10 | > 10 | synergistic anti-proliferation effects | synergistic anti-proliferation effects | – | – | – | – | – | – | – | –
3 | Cc1ncsc1-c1ccc([C@H](C)NC(=O)[C@@H]2C[C@@H](O)CN2C(=O)[C@@H](c2cc(O[C@@H](C)CN3CC[C@@H](N4CCN5c6cc(-c7ccccc7O)nnc6NC[C@H]5C4)C3)no2)C(C)C)cc1 [Compound 1] | synergistic anti-proliferation effects; also recorded: Excellent synergy; also recorded: potent synergistic interaction | > 10 | > 10 | synergistic anti-proliferation effects; also recorded: Excellent synergy; also recorded: potent synergistic interaction | – | > 10 | > 10 | do not show synergistic effects | do not show synergistic effects | can slow down the enlargement of tumor volumes | synergistic effects for tumor volume reduction | can slow down the enlargement of tumor volumes | synergistic effects for tumor volume reduction
4 | C=C(F)C(=O)N1CCN(c2nc(OC[C@@H]3CCCN3C)nc3c2CCN(c2cccc4cccc(Cl)c24)C3)C[C@@H]1CC#N [MRTX849, adagrasib] | synergistic anti-proliferation effects; also recorded: Excellent synergy | > 10 | > 10 | synergistic anti-proliferation effects | – | – | – | do not show synergistic effects | do not show synergistic effects | – | synergistic effects for tumor volume reduction | – | synergistic effects for tumor volume reduction
